The text below walks through data of the supplement of paper PMC11208160.
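Also: IS621 recombinase and bridge RNA in Escherichia coli cells.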

The data set in a line: recombinant barcode read abundance after kanamycin selection (control-corrected) (log10(CPM+1)); higher = more efficient recombination; sequences stand for … in AGTGCAGAGAAAATCGGCCAGTTTTCTCTGCCTGCAGTCCGCATGCCGT…AGATTTATGCAGCGGACTGCCTTTCTCCCAAAGTGATAAACCGGACAGTATCATGGACCGGTTTTCCCGGTAATCCGTATTTGCAAGGTTGGTTTCACT; site = the 11-nt target. The essentials: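 This pooled E. coli screen matched targets with IS621 bridge RNA target-binding loops. Plating was done in duplicate on chloramphenicol/ampicillin LB agar as a control and on chloramphenicol/ampicillin/kanamycin plus 0.1 mM IPTG. Recombination efficiency reflects barcode counts at recombinant junctions as counts per million, averaged and control-corrected. The figures are log10(CPM+1).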
Take “TTAAGCTCTTGGGTTCTAACCTGTTGCCT (site GTAAGCTCTAG)”: the “recombinant barcode read abundance (log10)” value is 0.
In the case of “TTAAGCTCTTGGGTTCTAACCTGTTGCCT (site TTAAGCTCTAG)” it was 1.43.
With “TTAAGTCCTTGGGTTCTAACCTGTTGCAT (site TTAAGTCCTAT)”, the “recombinant barcode read abundance (log10)” value is 0.498.
In the case of “TTAAGTCCTTGGGTTCTAACCTGTTGCAT (site TTAGGTCCTAA)” it was 0.0454.
For “TTACCCACTTGGGTTCTAACCTGTTGCCT (site TTACCAACTAG)”, the “recombinant barcode read abundance (log10)” value came to 0.0275.
On to “TTACCCACTTGGGTTCTAACCTGTTGCCT (site TTACCCACTAG)”, for which the “recombinant barcode read abundance (log10)” value was 3.27.
To “TTACCCACTTGGGTTCTAACCTGTTGCCT (site TTACCGACTAG)” belongs 0.0929; to “TTACCCACTTGGGTTCTAACCTGTTGCCT (site TTACCTACTAG)”, 0.151.
As for “TTACGAGCTTGGGTTCTAACCTGTTGCGG (site TTACGAGCTCC)”, the “recombinant barcode read abundance (log10)” value was determined as 1.81.
In the case of “TTACGAGCTTGGGTTCTAACCTGTTGCGG (site TTACGCGCTCC)” it was 0.176; in that of “TTACGAGCTTGGGTTCTAACCTGTTGCGG (site TTACGGGCTCC)”, 0.608.
As for “TTACGAGCTTGGGTTCTAACCTGTTGCGG (site TTACGTGCTCC)”, the “recombinant barcode read abundance (log10)” value amounted to 0.14.
In the case of “TTACGTACTTGGGTTCTAACCTGTTGCCT (site ATACGTACTAG)” it was 0.131; in that of “TTACGTACTTGGGTTCTAACCTGTTGCCT (site CTACGTACTAG)”, 0.193; in that of “TTACGTACTTGGGTTCTAACCTGTTGCCT (site GTACGTACTAG)”, 0.19.
For “TTACGTACTTGGGTTCTAACCTGTTGCCT (site TTACGTACTAG)”, the “recombinant barcode read abundance (log10)” value was found to be 1.45.
With “TTACGTGCTTGGGTTCTAACCTGTTGCGG (site TTACGAGCTCC)”, the “recombinant barcode read abundance (log10)” value is 0.271.
To “TTACGTGCTTGGGTTCTAACCTGTTGCGG (site TTACGCGCTCC)” belongs 0.141.
To “TTACGTGCTTGGGTTCTAACCTGTTGCGG (site TTACGGGCTCC)” belongs 0.67; to “TTACGTGCTTGGGTTCTAACCTGTTGCGG (site TTACGTGCTCC)”, 2.4; to “TTAGAGCCTTGGGTTCTAACCTGTTGCCT (site TTAGAGACTAG)”, 0.0939.
To “TTAGAGCCTTGGGTTCTAACCTGTTGCCT (site TTAGAGCCTAG)” belongs 2; to “TTAGAGCCTTGGGTTCTAACCTGTTGCCT (site TTAGAGGCTAG)”, 0.173; to “TTAGAGCCTTGGGTTCTAACCTGTTGCCT (site TTAGAGTCTAG)”, 0.644.
For the sequence “TTAGAGTCTTGGGTTCTAACCTGTTGCCT (site TTAGAGACTAG)”, the “recombinant barcode read abundance (log10)” value came out at 0.103.
To “TTAGAGTCTTGGGTTCTAACCTGTTGCCT (site TTAGAGCCTAG)” belongs 0.925.
Take “TTAGAGTCTTGGGTTCTAACCTGTTGCCT (site TTAGAGGCTAG)”: the “recombinant barcode read abundance (log10)” value is 0.126.
In the case of “TTAGAGTCTTGGGTTCTAACCTGTTGCCT (site TTAGAGTCTAG)” it was 2.08.
Turning to “TTAGCCTCTTGGGTTCTAACCTGTTGCCT (site TTAGCATCTAG)”, the “recombinant barcode read abundance (log10)” value came to 0.168.
On to “TTAGCCTCTTGGGTTCTAACCTGTTGCCT (site TTAGCCTCTAG)”, for which the “recombinant barcode read abundance (log10)” value stood at 2.66.
To “TTAGCCTCTTGGGTTCTAACCTGTTGCCT (site TTAGCGTCTAG)” belongs 0.137; to “TTAGCCTCTTGGGTTCTAACCTGTTGCCT (site TTAGCTTCTAG)”, 0.00901.
With “TTAGCGTCTTGGGTTCTAACCTGTTGCCT (site TTAGCATCTAG)”, the “recombinant barcode read abundance (log10)” value is 1.47.
Take “TTAGCGTCTTGGGTTCTAACCTGTTGCCT (site TTAGCCTCTAG)”: the “recombinant barcode read abundance (log10)” value was determined as 0.0674.
To “TTAGCGTCTTGGGTTCTAACCTGTTGCCT (site TTAGCGTCTAG)” belongs 1.73.
On to “TTAGCGTCTTGGGTTCTAACCTGTTGCCT (site TTAGCTTCTAG)”, for which the “recombinant barcode read abundance (log10)” value was determined as 0.129.
For the sequence “TTATACACTTGGGTTCTAACCTGTTGCTC (site GATAGGGCTAG)”, the “recombinant barcode read abundance (log10)” value amounted to 0.0179.
In the case of “TTATACACTTGGGTTCTAACCTGTTGCTC (site TTATACACTGA)” it was 0.919; in that of “TTATGATCTTGGGTTCTAACCTGTTGCCT (site TCATGAACTAG)”, 0.0371.
As for “TTATGATCTTGGGTTCTAACCTGTTGCCT (site TTATGATCTAG)”, the “recombinant barcode read abundance (log10)” value worked out at 0.193.
As for “TTATGGGCTTGGGTTCTAACCTGTTGCCG (site TCCTGGGCTCG)”, the “recombinant barcode read abundance (log10)” value turned out to be 0.114.
In the case of “TTATGGGCTTGGGTTCTAACCTGTTGCCG (site TTATGGGCTCG)” it was 0.88.
In the case of “TTCAAGACTTGGGTTCTAACCTGTTGCCT (site TTCAAGACTAG)” it was 0.681; in that of “TTCAAGACTTGGGTTCTAACCTGTTGCCT (site TTCAAGCCTAG)”, 0.0955.
“TTCAAGACTTGGGTTCTAACCTGTTGCCT (site TTCAAGGCTAG)”: the “recombinant barcode read abundance (log10)” value came out at 0.
As for “TTCAAGACTTGGGTTCTAACCTGTTGCCT (site TTCAAGTCTAG)”, the “recombinant barcode read abundance (log10)” value was 0.241.
In the case of “TTCAAGCCTTGGGTTCTAACCTGTTGCGG (site TTCAAGCCTAC)” it was 0.222; in that of “TTCAAGCCTTGGGTTCTAACCTGTTGCGG (site TTCAAGCCTCC)”, 1.15; in that of “TTCAAGGCTTGGGTTCTAACCTGTTGCCT (site TTCAAGACTAG)”, 0.0627.
In the case of “TTCAAGGCTTGGGTTCTAACCTGTTGCCT (site TTCAAGCCTAG)” it was 0.118.
To “TTCAAGGCTTGGGTTCTAACCTGTTGCCT (site TTCAAGGCTAG)” belongs 0.17; to “TTCAAGGCTTGGGTTCTAACCTGTTGCCT (site TTCAAGTCTAG)”, 0.461.
Regarding “TTCAAGTCTTGGGTTCTAACCTGTTGCGT (site TTCAACTCTAC)”, the “recombinant barcode read abundance (log10)” value turned out to be 0.0281.
In the case of “TTCAAGTCTTGGGTTCTAACCTGTTGCGT (site TTCAAGTCTAC)” it was 1.33; in that of “TTCAATTCTTGGGTTCTAACCTGTTGCTT (site TATAATTCTAA)”, 0.00963; in that of “TTCAATTCTTGGGTTCTAACCTGTTGCTT (site TTCAATTCTAA)”, 0.0521.
In the case of “TTCCCTACTTGGGTTCTAACCTGTTGCCT (site CTCCCAACTAG)” it was 0.102; in that of “TTCCCTACTTGGGTTCTAACCTGTTGCCT (site TTCCCTACTAG)”, 0.452; in that of “TTCCGAGCTTGGGTTCTAACCTGTTGCAG (site CCTACGCCTTG)”, 0.216.
With “TTCCGAGCTTGGGTTCTAACCTGTTGCAG (site TTCCGAGCTCT)”, the “recombinant barcode read abundance (log10)” value was 0.873.
In the case of “TTCGGAGCTTGGGTTCTAACCTGTTGCTG (site TTCGGAGCTCA)”, the “recombinant barcode read abundance (log10)” value came to 1.56.
Turning to “TTCGGAGCTTGGGTTCTAACCTGTTGCTG (site TTGGGAGCTCA)”, the “recombinant barcode read abundance (log10)” value amounted to 0.0871.
As to “TTCGGCTCTTGGGTTCTAACCTGTTGCTA (site CGATCACCTAG)”, the “recombinant barcode read abundance (log10)” value was determined as 0.0491.
To “TTCGGCTCTTGGGTTCTAACCTGTTGCTA (site TTCGGCTCTTA)” belongs 0.605; to “TTCGTAGCTTGGGTTCTAACCTGTTGCGT (site TTCGTAGCTAC)”, 1.29; to “TTCGTAGCTTGGGTTCTAACCTGTTGCGT (site TTCGTAGCTAG)”, 0.285.
On to “TTCTACACTTGGGTTCTAACCTGTTGCAT (site GAACCTTCTCC)”, for which the “recombinant barcode read abundance (log10)” value was found to be 0.107.
To “TTCTACACTTGGGTTCTAACCTGTTGCAT (site TTCTACACTAT)” belongs 0.298; to “TTCTACTCTTGGGTTCTAACCTGTTGCCT (site CTCTACTCTAG)”, 0.75.
In the case of “TTCTACTCTTGGGTTCTAACCTGTTGCCT (site TTCTACTCTAG)” it was 0.405; in that of “TTCTCTCCTTGGGTTCTAACCTGTTGCCT (site TTCTATCCTAG)”, 0.0831.
For the sequence “TTCTCTCCTTGGGTTCTAACCTGTTGCCT (site TTCTCTCCTAG)”, the “recombinant barcode read abundance (log10)” value was 0.206.
In the case of “TTCTCTCCTTGGGTTCTAACCTGTTGCCT (site TTCTGTCCTAG)”, the “recombinant barcode read abundance (log10)” value came to 0.00855.
Regarding “TTCTCTCCTTGGGTTCTAACCTGTTGCCT (site TTCTTTCCTAG)”, the “recombinant barcode read abundance (log10)” value amounted to 0.169.
For “TTCTCTTCTTGGGTTCTAACCTGTTGCCT (site TTCTCTTCTAG)”, the “recombinant barcode read abundance (log10)” value was found to be 0.0495.
To “TTCTCTTCTTGGGTTCTAACCTGTTGCCT (site TTCTGTTCTAG)” belongs 0.103; to “TTCTGAACTTGGGTTCTAACCTGTTGCCT (site GTCTCAACTAG)”, 0.109.
